Assays:
[1] = test system: allergic hypersensitivity induced by Nickel allergen (skin); experiment: Nickel-induced allergic contact dermatitis, topical treatment, blinded clinical score of skin lesion; assay type: in vivo, human; details: 4×140 μl of 50 mM Propionate in Locke-Ringer solution over 8 hours, 60 hours after last Nickel contact; vs Locke-Ringer control; n=2
Procedure: The study aimed at determining whether treatment with propionate promotes skin health following allergic hypersensitivity (particularly allergic contact dermatitis).
Allergic hypersensitivity was induced through contact sensitization with Nickel allergen over a 12 hour time period.
The sum of the four scores given blinded to each subject (n=2) yielded in the clinical score. The results can be seen in FIGS. 1 and 2.

[2] = test system: wound infection of injured skin; experiment: Treatment of infected wound of injured skin; assay type: in vivo; details: skin treated with propionate vs skin treated with water
Description: The study aimed at determining whether treatment with propionate promotes skin health of wound infection of injured skin.

[3] = in Locke-Ringer Solution
Description: • Identification: Sodium propionate (Sigma-Aldrich, Cat. P5436-100G) • Test Item Name for Report: Sodium propionate • Description: Hygroscopic white powder • Batch Number: Lot.

CCC(=O)[O-].[Na+] [Sodium propionate]
Clinical score of skin lesion (sum of four scores) [1]: clinical score was significantly reduced
Appearance of skin lesions (FIG. 4) [2]: lesions are significantly reduced
Stability of Test Item in Solution [3]: ≥ 6 months

From patent publication US20200360317A1, “CARBOXYLIC ACIDS FOR TREATING/PREVENTING A SKIN DISEASE” (Proponent Biotech GmbH, priority 2016, published 2020)
